Measurements published in ChEMBL document CHEMBL1201862, “PubChem BioAssay data set” (2004).
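Method: 48-hour compound exposure of cells in 96-well plates, five concentrations, linear interpolation of endpoints. GI50 is the concentration that inhibits growth by half.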 Activity calls are given as the source filed them. Cut-off read from the data, not from the text of the source: active = GI50 up to about 1.1 µM and inactive = higher.

Assays:
Experiment in all cases: DTP human tumour cell line panel, 48 h
A498 = system: A498
A549 = system: A549
ACHN = system: ACHN
CAKI-1 = system: CAKI-1
CCRF-CEM = system: CCRF-CEM
COLO 205 = system: COLO 205
DU-145 = system: DU-145
EKVX = system: EKVX
HCC 2998 = system: HCC 2998
HCT-15 = system: HCT-15
HL-60 = system: HL-60
HOP-62 = system: HOP-62
HOP-92 = system: HOP-92
HT-29 = system: HT-29
Hs-578T = system: Hs-578T
IGROV-1 = system: IGROV-1
K562 = system: K562
KM12 = system: KM12
LOX IMVI = system: LOX IMVI
M14 = system: M14
MCF7 = system: MCF7
MDA-MB-231 = system: MDA-MB-231
MDA-MB-435 = system: MDA-MB-435
MDA-N = system: MDA-N
MOLT-4 = system: MOLT-4
Malme-3M = system: Malme-3M
NCI-H226 = system: NCI-H226
NCI-H23 = system: NCI-H23
NCI-H460 = system: NCI-H460
NCI/ADR-RES = system: NCI/ADR-RES
OVCAR-3 = system: OVCAR-3
OVCAR-4 = system: OVCAR-4
OVCAR-5 = system: OVCAR-5
OVCAR-8 = system: OVCAR-8
PC-3 = system: PC-3
RPMI-8226 = system: RPMI-8226
RXF 393 = system: RXF 393
SF-268 = system: SF-268
SF-295 = system: SF-295
SF-539 = system: SF-539
SK-MEL-28 = system: SK-MEL-28
SK-MEL-2 = system: SK-MEL-2
SK-MEL-5 = system: SK-MEL-5
SK-OV-3 = system: SK-OV-3
SNB-19 = system: SNB-19
SNB-75 = system: SNB-75
SR = system: SR
SW-620 = system: SW-620
T47D = system: T47D
TK-10 = system: TK-10
U-251 = system: U-251
UACC-257 = system: UACC-257
UACC-62 = system: UACC-62
UO-31 = system: UO-31
786-0 = system: 786-0
HCT-116 = system: HCT-116
NCI-H522 = system: NCI-H522
SN12C = system: SN12C

C[C@]12CC[C@@H]3c4ccc(O)cc4CC[C@H]3[C@@H]1C/C(=C\c1ccncc1)C2=O
GI50 (A498): 34 µM (inactive)
GI50 (A549): 19.1 µM (inactive)
GI50 (ACHN): 20.1 µM (inactive)
GI50 (CAKI-1): 33.2 µM (inactive)
GI50 (CCRF-CEM): 15.3 µM (inactive)
GI50 (COLO 205): 29.7 µM (inactive)
GI50 (DU-145): 12.1 µM (inactive)
GI50 (EKVX): 28.1 µM (inactive)
GI50 (HCC 2998): 30.6 µM (inactive)
GI50 (HCT-15): 7.29 µM
GI50 (HL-60): 10.6 µM (inactive)
GI50 (HOP-62): 20.3 µM (inactive)
GI50 (HOP-92): 23.1 µM (inactive)
GI50 (HT-29): 19.3 µM (inactive)
GI50 (Hs-578T): 14.2 µM (inactive)
GI50 (IGROV-1): 15.1 µM (inactive)
GI50 (K562): 8.61 µM (inactive)
GI50 (KM12): 13.7 µM (inactive)
GI50 (LOX IMVI): 20.7 µM (inactive)
GI50 (M14): 20.4 µM (inactive)
GI50 (MCF7): 12 µM (inactive)
GI50 (MDA-MB-231): 41.4 µM (inactive)
GI50 (MDA-MB-435): 4.46 µM (inactive)
GI50 (MDA-N): 11.3 µM (inactive)
GI50 (MOLT-4): 4.71 µM (inactive)
GI50 (Malme-3M): 14.1 µM (inactive)
GI50 (NCI-H226): 19.3 µM (inactive)
GI50 (NCI-H23): 29 µM (inactive)
GI50 (NCI-H460): 9.4 µM (inactive)
GI50 (NCI/ADR-RES): 17.5 µM (inactive)
GI50 (OVCAR-3): 14.8 µM (inactive)
GI50 (OVCAR-4): 15.6 µM (inactive)
GI50 (OVCAR-5): 27.5 µM (inactive)
GI50 (OVCAR-8): 18.5 µM (inactive)
GI50 (PC-3): 11.6 µM (inactive)
GI50 (RPMI-8226): 8.53 µM (inactive)
GI50 (RXF 393): 20.4 µM (inactive)
GI50 (SF-268): 30.1 µM (inactive)
GI50 (SF-295): 24.9 µM (inactive)
GI50 (SF-539): 10.9 µM (inactive)
GI50 (SK-MEL-28): 64.3 µM (inactive)
GI50 (SK-MEL-2): 12.8 µM (inactive)
GI50 (SK-MEL-5): 8.04 µM (inactive)
GI50 (SK-OV-3): 35.1 µM (inactive)
GI50 (SNB-19): 38.5 µM (inactive)
GI50 (SNB-75): > 100 µM (inactive)
GI50 (SR): 6.32 µM (inactive)
GI50 (SW-620): 27.5 µM (inactive)
GI50 (T47D): 27.2 µM (inactive)
GI50 (TK-10): 29.2 µM (inactive)
GI50 (U-251): 16.1 µM (inactive)
GI50 (UACC-257): 27.5 µM (inactive)
GI50 (UACC-62): 10.3 µM (inactive)
GI50 (UO-31): 35.6 µM (inactive)

CC(C)(C)N1NC1C1NN1C(C)(C)C (stereo unspecified)
GI50 (786-0): > 100 µM (inactive)
GI50 (A498): > 100 µM (inactive)
GI50 (A549): > 100 µM (inactive)
GI50 (ACHN): > 100 µM (inactive)
GI50 (CAKI-1): > 100 µM (inactive)
GI50 (CCRF-CEM): > 100 µM (inactive)
GI50 (COLO 205): > 100 µM (inactive)
GI50 (DU-145): > 100 µM (inactive)
GI50 (EKVX): > 100 µM (inactive)
GI50 (HCC 2998): > 100 µM (inactive)
GI50 (HCT-116): > 100 µM (inactive)
GI50 (HCT-15): > 100 µM
GI50 (HOP-62): > 100 µM (inactive)
GI50 (HOP-92): > 100 µM (inactive)
GI50 (HT-29): > 100 µM (inactive)
GI50 (Hs-578T): > 100 µM (inactive)
GI50 (IGROV-1): > 100 µM (inactive)
GI50 (K562): > 100 µM (inactive)
GI50 (KM12): > 100 µM (inactive)
GI50 (LOX IMVI): > 100 µM (inactive)
GI50 (M14): > 100 µM (inactive)
GI50 (MCF7): > 100 µM (inactive)
GI50 (MDA-MB-231): > 100 µM (inactive)
GI50 (MDA-MB-435): > 100 µM (inactive)
GI50 (MDA-N): > 100 µM (inactive)
GI50 (MOLT-4): > 100 µM (inactive)
GI50 (Malme-3M): > 100 µM (inactive)
GI50 (NCI-H226): > 100 µM (inactive)
GI50 (NCI-H23): > 100 µM (inactive)
GI50 (NCI-H460): > 100 µM (inactive)
GI50 (NCI-H522): > 100 µM (inactive)
GI50 (NCI/ADR-RES): > 100 µM (inactive)
GI50 (OVCAR-3): > 100 µM (inactive)
GI50 (OVCAR-4): > 100 µM (inactive)
GI50 (OVCAR-5): > 100 µM (inactive)
GI50 (OVCAR-8): > 100 µM (inactive)
GI50 (PC-3): > 100 µM (inactive)
GI50 (RPMI-8226): > 100 µM (inactive)
GI50 (RXF 393): > 100 µM (inactive)
GI50 (SF-268): > 100 µM (inactive)
GI50 (SF-295): > 100 µM (inactive)
GI50 (SF-539): > 100 µM (inactive)
GI50 (SK-MEL-28): > 100 µM (inactive)
GI50 (SK-MEL-2): > 100 µM (inactive)
GI50 (SK-MEL-5): > 100 µM (inactive)
GI50 (SK-OV-3): > 100 µM (inactive)
GI50 (SN12C): > 100 µM (inactive)
GI50 (SNB-19): > 100 µM (inactive)
GI50 (SNB-75): > 100 µM (inactive)
GI50 (SR): > 100 µM (inactive)
GI50 (SW-620): > 100 µM (inactive)
GI50 (T47D): > 100 µM (inactive)
GI50 (TK-10): > 100 µM (inactive)
GI50 (U-251): > 100 µM (inactive)
GI50 (UACC-257): > 100 µM (inactive)
GI50 (UACC-62): > 100 µM (inactive)
GI50 (UO-31): > 100 µM (inactive)
